The values below come from patent publication US12678512B2, “Anti-EGFR antibody-drug conjugate with a cyclic dinucleotide derivative” (DAIICHI SANKYO COMPANY, LIMITED, priority 2020, dated 2026).

Assay [1] deals with human STING (THP1-Dual cells, HAQ mutant; IRF3 pathway) (Homo sapiens, UniProt Q86WV6, G230A/H232R/R293Q/R71H). In words: Reporter gene assay, human STING agonist activity in THP1-Dual cells. In general terms: Reporter assays use an easily measured gene product as a stand-in for the process of interest.
Method: Human STING agonist activity was evaluated using THP1-Dual™ cells (HAQ mutant) (InvivoGen, CA, US), in which activation of the interferon regulatory factor-3 (IRF3) pathway, which is downstream of the STING pathway, could be checked.
The assay was conducted as follows. First, each test compound diluted in PBS was dispensed at 20 μL/well of a transparent 96-well plate (Corning, NY, US). […] The cells were cultured for 24 h under conditions at 37° C. and 5% CO2, and then centrifuged to collect the supernatant. Next, 6 μL of the collected supernatant was added to a white 384-well plate, and 15 μL of QUANTI-Luc (InvivoGen) solution was added thereto. After well mixing, the luminescence was measured using a plate reader (PerkinElmer, MA, US).
Assay [2] concerns mouse bone marrow-derived dendritic cells. The experiment in a line: Co-culture assay with CT26.WT or CT26.WT-hCD70 cell line and mouse bone marrow-derived dendritic cells. Format: cell-based. The conditions noted are these: conditions DC, 20 h incubation, FIG. 12. The source says:
CT26.WT (CRL2638), a mouse colon cancer cell line purchased from American Type Culture Collection, was transduced with human CD70 gene (NP_001243) to establish CT26.WT-hCD70 cells. Specifically, a pLVSIN lentiviral vector (Takara Bio), in which the human CD70 gene was inserted, was constructed. Next, Lenti-X293T cell line (Takara Bio) was transfected with the vector using a Lentiviral High Titer Packaging Mix (Takara Bio). Then, the supernatant was collected, and the CT26.WT was infected therewith. The cells were maintained in medium supplemented with 10 μg/mL puromycin (Thermo Fisher Scientific).
Mouse bone marrow cells were collected from the femur of 5-week-old female BALB/c mice (BALB/cAnNCrlCrlj) (Charles River, Japan). The mouse bone marrow cells were cultured in the presence of […] murine GM-CSF (PEPROTECH) for 7 days to obtain mouse bone marrow-derived dendritic cells. 1.5×10^5 CT26.WT or CT26.WT-hCD70 cell line cells and 1×10^5 mouse bone marrow-derived dendritic cells were seeded per well of a 96-well plate. Each test compound was diluted in RPMI medium (Invitrogen), and 200 μL was added. […] The cells were washed with FCM buffer again and analyzed using a Fortessa (BD Biosciences). MFI of CD86 in CD45^+, CD11c^+, and I-A/I-E^+ fraction was calculated. Then, the ratio with respect to the test compound-free group was calculated. […]

Assay [3] concerns CT26.WT-chimeraEGFR cells subcutaneously transplanted in BALB/c mouse. In words: Anti-tumor test (5). It counts as in vivo. Particulars: 0.01 mg/kg into the tail vein once on Day 7, FIG. 24. The protocol: Then, the supernatant was collected, and the CT26.WT was infected therewith.
In addition, the vehicle group was provided in which acetate buffer was administered. The number of mice in each group was 8.

In assay [4] the test system is CT26.WT-hEGFR cells subcutaneously transplanted in BALB/c mouse. The experiment in a line: Anti-tumor test (2). Format: in vivo. The conditions noted are these: 1.5 mg/kg into the tail vein once on Day 12, FIG. 15. The source says: CT26.WT (CRL2638), a mouse colon cancer cell line purchased from American Type Culture Collection, was transduced with the human EGFR gene (NP_005219.2) to establish CT26.WT-hEGFR cells. Specifically, a pLVSIN lentiviral vector (Takara Bio), in which the human EGFR gene was inserted, was constructed. Next, Lenti-X293T cell line (Takara Bio) was transfected with the vector using a Lentiviral High Titer Packaging Mix (Takara Bio). Then, the supernatant was collected, and the CT26.WT was infected therewith. The cells were maintained in medium supplemented with 10 μg/mL puromycin (Thermo Fisher Scientific).
CT26.WT-hEGFR cells were suspended in saline. Ne×t, 3×10^6 cells were transplanted subcutaneously into the right axillary region of each BALB/c mouse (Day 0), and random grouping was conducted after 12 days. […] In addition, the vehicle group was provided in which acetate buffer was administered. The number of mice in each group was 8.

The target in assay [5] is T1, mouse wild type (Ms-WT) STING C-terminal binding domain protein (Mus musculus, UniProt Q3TBT3).
T1 construct: made in house; host or cells: E. coli Rosetta 2 (DE3), co-expressed with BirA
In words: Protein thermal shift assay, STING binding. The conditions noted are these: test compound final concentration 0.5 mM. How it is done:
(§1) Each expression strain was added to TB broth containing 100 μg/mL ampicillin, 50 μg/mL streptomycin, and 30 μg/mL kanamycin, and cultured at 37° C. The expression was then induced with 100 μM IPTG, and the cells were further cultured at 16° C.
(§2) The culture broth was centrifuged, and the obtained bacteria were suspended in 50 mM HEPES pH8.0, 500 mM NaCl, 20 mM imidazole, 1 mM DTT, 5% (w/v) glycerol, and cOmplete EDTA free, and then frozen and thawed. After the addition of lysozyme and DNase I, the proteins were extracted by sonication, and the supernatant was collected by centrifugation. The resulting supernatant was purified through a HisTrap FF column (GE Healthcare) using an AKTAexpress chromatography system (GE Healthcare, IL, US), made to pass through a Superdex200 16/60 column (GE Healthcare), and eluted with a buffer (20 mM HEPES pH 7.5, 120 mM NaCl, 20% glycerol, 0.8 mM DTT). […] The protein concentration was measured using a Nanodrop 2000 (Thermo Fisher Scientific, MA, US), and each protein was frozen and stored at −80° C. until use.
(§3) The binding of a compound to each STING C-terminal binding domain protein was determined by the protein thermal shift assay, which uses the increase in the thermal denaturation temperature of the protein as an indicator.
(§4) Specifically, an assay buffer (20 mM Tris-HCl pH7.5, 120 mM NaCl) was applied to wells of a 384-well real-time PCR plate. Next, 3 μL of each test compound (final concentration 0.5 mM), 3 μL of SYPRO Orange Protein Gel Stain (Thermo Fisher Scientific) (final concentration: 20× concentration), and 6 μL of the STING protein were mixed in each well while using a plate shaker. A real-time PCR system (Thermo Fisher Scientific) was used to increase the temperature from 25° C. to 95° C. at a rate of 0.03° C. per second, and the thermal denaturation temperature of the protein was measured using the fluorescence emitted by SYPRO Orange as an indicator. The measured values were analyzed using Protein Thermal Shift software (Thermo Fisher Scientific) to determine Tm (the midpoint of the unfolding transition) (° C.) as the temperature at which the rate of increase in fluorescence intensity reached its maximum value. The shift of Tm by the test compound was calculated as ΔTm (° C.) by subtracting, from the Tm value of each compound, the Tm value of the well without the compound.

The target of assay [6] is T2, human HAQ mutant (Hu-HAQ) STING C-terminal binding domain protein (Homo sapiens, UniProt Q86WV6, G230A/H232R/R293Q).
T2 construct: made in house; host or cells: E. coli Rosetta 2 (DE3), co-expressed with BirA
The experiment in a line: Protein thermal shift assay, STING binding. Particulars: test compound final concentration 0.5 mM. The protocol:
as §1, §2, §3, §4

Assay [7] has as its target T3, human REF mutant (Hu-REF) STING C-terminal binding domain protein (Homo sapiens, UniProt Q86WV6).
T3 construct: made in house; host or cells: E. coli Rosetta 2 (DE3), co-expressed with BirA
The experiment in a line: Protein thermal shift assay, STING binding. The conditions noted are these: test compound final concentration 0.5 mM. The protocol: as §1, §2, §3, §4

In assay [8] the target is T4, human wild-type (Hu-WT) STING C-terminal binding domain protein (Homo sapiens, UniProt Q86WV6, H232R).
T4 construct: made in house; host or cells: E. coli Rosetta 2 (DE3), co-expressed with BirA
In words: Protein thermal shift assay, STING binding. The conditions noted are these: test compound final concentration 0.5 mM. The protocol:
as §1, §2, §3, §4

T2 sequence (Q86WV6 with tags, fused parts or gaps G230A/H232R/R293Q): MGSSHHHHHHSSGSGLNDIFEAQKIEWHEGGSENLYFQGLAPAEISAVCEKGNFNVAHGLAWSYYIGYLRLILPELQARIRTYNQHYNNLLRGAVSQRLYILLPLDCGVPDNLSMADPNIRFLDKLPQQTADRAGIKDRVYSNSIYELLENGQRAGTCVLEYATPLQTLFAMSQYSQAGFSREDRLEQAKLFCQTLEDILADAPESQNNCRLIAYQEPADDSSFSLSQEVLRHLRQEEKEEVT
T1 sequence (Q3TBT3 with tags, fused parts or gaps): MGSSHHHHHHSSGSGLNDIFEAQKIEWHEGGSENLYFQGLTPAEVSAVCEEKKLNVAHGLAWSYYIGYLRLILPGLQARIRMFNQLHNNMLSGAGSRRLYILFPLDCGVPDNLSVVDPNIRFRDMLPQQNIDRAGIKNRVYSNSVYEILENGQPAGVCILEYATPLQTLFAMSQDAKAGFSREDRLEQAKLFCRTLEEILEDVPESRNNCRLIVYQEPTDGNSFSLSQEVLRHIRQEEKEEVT
T3 sequence (Q86WV6 with tags, fused parts or gaps, change not shown): as the sequence (Q86WV6 with tags, fused parts or gaps G230A/H232R/R293Q) above, with A131G, R133H, Q194R counted along it
Sequence of human STING (THP1-Dual cells, HAQ mutant; IRF3 pathway) (Q86WV6 whole entry R71H/G230A/H232R/R293Q): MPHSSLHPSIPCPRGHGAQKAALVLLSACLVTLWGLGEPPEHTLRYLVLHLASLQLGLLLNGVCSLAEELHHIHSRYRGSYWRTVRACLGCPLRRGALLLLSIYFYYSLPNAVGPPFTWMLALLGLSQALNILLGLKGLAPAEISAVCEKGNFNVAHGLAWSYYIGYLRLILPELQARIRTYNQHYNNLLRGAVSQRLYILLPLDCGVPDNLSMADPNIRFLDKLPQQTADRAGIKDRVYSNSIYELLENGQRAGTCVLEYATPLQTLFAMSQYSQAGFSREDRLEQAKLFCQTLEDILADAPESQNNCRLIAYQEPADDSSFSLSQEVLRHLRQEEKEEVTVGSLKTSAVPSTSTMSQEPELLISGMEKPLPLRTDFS
T4 sequence (Q86WV6 with tags, fused parts or gaps H232R): as the sequence (Q86WV6 with tags, fused parts or gaps G230A/H232R/R293Q) above, with A131G, Q194R counted along it

In assay [1], `O=c1c2ncn([C@@H]3O[C@@H]4COP(=O)(S)O[C@H]5[C@@H](F)[C@H](n6cc7c8c(ncnc86)NCCC7)O[C@@H]5COP(=O)(S)O[C@@H]3[C@@H]4O)c2ncn1CCO` (single isomer, unassigned) [Compound 34a] yielded an EC50 of 200 nM. In addition, the “CD86 expression on mouse dendritic cells (ratio of MFI with respect to the compound-free group)” value in assay [2] was “caused an increase in CD86 expression on mouse dendritic cells in all conditions”. In assay [3], the “tumor growth (tumor volume)” value is given as “tumor growth was not inhibited”.

On to “anti-EGFR antibody 1: IgG1 isotype with LALA mutation, produced with reference to the Vectibix review report; light chain SEQ ID NO: 9, heavy chain SEQ ID NO: 10”, for which the “tumor growth (tumor volume)” value in assay [4] is given as “tumor growth was not inhibited”.

As for `O=C(CO)NCCn1cnc2c(ncn2[C@@H]2O[C@@H]3COP(=O)(S)O[C@H]4[C@@H](F)[C@H](n5cc6c7c(ncnc75)SCCC6)O[C@@H]4COP(=O)(S)O[C@@H]2[C@@H]3O)c1=O` (single isomer, unassigned) [Compound 50b], the ΔTm at 500 µM was found to be 7.4 °C in assay [5], 15.3 °C in assay [6] and 6.3 °C in assay [7].

For the molecule `O=c1c2ncn([C@@H]3O[C@@H]4COP(=O)(S)O[C@H]5[C@@H](O)[C@H](n6cc7c8c(ncnc86)NCCC7)O[C@@H]5COP(=O)(S)O[C@@H]3[C@@H]4O)c2ncn1CCO` (single isomer, unassigned) [Compound 6b], the ΔTm at 500 µM in assay [5] was found to be 12.9 °C; in assay [8], 8.4 °C; in assay [6], 11.3 °C; in assay [7] it was 3.4 °C. In assay [1], this molecule came in with an EC50 of 2100 nM.

In general, EC50 refers to the concentration that produces a half-maximal response. A lower EC50 goes with greater potency. The ΔTm is the change in melting temperature against a reference sample.
